These results are taken from patent publication US9045498B2, “Hexahydropyrano[3,4-d][1,3]thiazin-2-amine compounds” (Pfizer Inc., priority 2012, dated 2015).

The target in one assay is BACE1 enzyme (Homo sapiens (Human), UniProt P56817). Briefly: BACE1 Cell-Free Assay (fluorescence polarization). It counts as biochemical. The following applies: geometric mean of 2-3 determinations; pH 4.5, 3 hours at 37° C. From the text:
This assay measures the inhibition of the beta-secretase enzyme as it cleaves a non-native peptide.
A synthetic APP substrate that can be cleaved by beta-secretase having N-terminal biotin and made fluorescent by the covalent attachment of Oregon Green at the Cys residue is used to assay beta-secretase activity in the presence or absence of the inhibitory compounds. […] The BACE1 enzyme is affinity purified material from conditioned media of CHO-K1 cells that have been transfected with a soluble BACE construct (BACE1deltaTM96His). Compounds are incubated in a ½ log dose response curve from a top concentration of 100 μM with BACE1 enzyme and the biotinylated fluorescent peptide in 384-well black plates (Thermo Scientific #4318). BACE1 is at a final concentration of 0.1 nM with a final concentration of peptide substrate of 150 nM in a reaction volume of 30 μL assay buffer (100 mM sodium acetate, pH 4.5 (brought to pH with acetic acid), and 0.001% Tween-20). Plates are covered and incubated for 3 hours at 37° C. The reaction is stopped with the addition of 30 μL of 1.5 μM Streptavidin (Pierce, #21125). After a 10 minute incubation at room temperature, plates are read on a PerkinElmer EnVision for fluorescence polarization (Ex485 nm/Em530 nm). The activity of the beta-secretase enzyme is detected by changes in the fluorescence polarization that occur when the substrate is cleaved by the enzyme.
On the technique in general: In fluorescence polarisation assays a small probe gives low polarisation when free and higher when bound to something large.

For assay [1], the system named is sAPPβ levels in H4 human neuroglioma cells over-expressing the wild-type human APP695. The assay can be described thus: Whole Cell Assay (In Vitro sAPPb Assay). It is filed as cell-based. The following applies: 18 hours treatment, geometric mean of 2-3 determinations (4-7 where marked d). As to the method:
Whole Cell Assay (In Vitro sAPPb Assay):
H4 human neuroglioma cells over-expressing the wild-type human APP695 are treated for 18 hours with compound in cell growth media having a final concentration 1% DMSO. sAPPβ levels are measured using either TMB-ELISA or Pierce SuperSignal ELISA Pico Chemiluminescent Substrate (Pierce 37069) with capture APP N-terminal antibody (Affinity BioReagents, OMA1-03132), wild-type sAPPβ specific reporter p192 (Elan), and tertiary anti rabbit-HRP (GE Healthcare).

Another assay has as its target BACE2 enzyme (Homo sapiens (Human), UniProt Q9Y5Z0). The assay can be described thus: BACE2 Cell-free Assay (fluorescence polarization). It counts as biochemical. To be noted: pH 4.5, 3 hours at 37° C.; number of determinations per footnote a, b, d. As for the experimental part:
This assay measures the inhibition of the BACE2 enzyme as it cleaves a non-native peptide. A synthetic substrate that can be cleaved by BACE2 having N-terminal biotin and made fluorescent by the covalent attachment of Oregon Green at the Cys residue is used to assay BACE2 activity in the presence or absence of the inhibitory compounds. The substrate is Biotin-[…]-C(Oregon green)-KK-OH. The BACE2 enzyme is available from Enzo Life Sciences (Cat # BML-SE550). Compounds are incubated in a ½ log dose response curve from a top concentration of 100 μM with BACE2 enzyme and the biotinylated fluorescent peptide in 384-well black plates (Thermo Scientific #4318). BACE2 is at a final concentration of 2.5 nM with a final concentration of peptide substrate of 150 nM in a reaction volume of 30 μL assay buffer (100 mM sodium acetate, pH 4.5 (brought to pH with acetic acid), and 0.001% Tween-20). Plates are covered and incubated for 3 hours at 37° C. The reaction is stopped with the addition of 30 μL of 1.5 μM Streptavidin (Pierce, #21125). After a 10 minute incubation at room temperature, plates are read on a Perkin Elmer EnVision for fluorescence polarization (Ex485 nm/Em530 nm). The activity of the beta-secretase enzyme is detected by changes in the fluorescence polarization that occur when the substrate is cleaved by the enzyme.

The structures appear in SMILES notation.

For orientation: IC50 means the midpoint of a concentration-inhibition curve. A high value points to weaker potency.

Chain of BACE2 enzyme (Q9Y5Z0 63-518): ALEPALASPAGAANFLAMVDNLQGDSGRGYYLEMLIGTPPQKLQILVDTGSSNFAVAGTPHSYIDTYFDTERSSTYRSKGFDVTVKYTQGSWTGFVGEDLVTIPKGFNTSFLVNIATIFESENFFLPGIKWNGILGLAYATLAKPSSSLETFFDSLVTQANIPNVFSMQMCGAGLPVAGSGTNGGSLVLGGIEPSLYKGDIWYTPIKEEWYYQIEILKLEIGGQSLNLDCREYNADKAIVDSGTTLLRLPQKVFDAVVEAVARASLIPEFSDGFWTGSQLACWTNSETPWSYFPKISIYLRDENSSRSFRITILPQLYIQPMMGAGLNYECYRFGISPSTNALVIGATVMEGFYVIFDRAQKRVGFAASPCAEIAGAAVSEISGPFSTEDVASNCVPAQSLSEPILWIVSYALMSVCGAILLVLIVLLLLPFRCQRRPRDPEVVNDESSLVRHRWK
Chain of BACE1 enzyme (P56817 46-457): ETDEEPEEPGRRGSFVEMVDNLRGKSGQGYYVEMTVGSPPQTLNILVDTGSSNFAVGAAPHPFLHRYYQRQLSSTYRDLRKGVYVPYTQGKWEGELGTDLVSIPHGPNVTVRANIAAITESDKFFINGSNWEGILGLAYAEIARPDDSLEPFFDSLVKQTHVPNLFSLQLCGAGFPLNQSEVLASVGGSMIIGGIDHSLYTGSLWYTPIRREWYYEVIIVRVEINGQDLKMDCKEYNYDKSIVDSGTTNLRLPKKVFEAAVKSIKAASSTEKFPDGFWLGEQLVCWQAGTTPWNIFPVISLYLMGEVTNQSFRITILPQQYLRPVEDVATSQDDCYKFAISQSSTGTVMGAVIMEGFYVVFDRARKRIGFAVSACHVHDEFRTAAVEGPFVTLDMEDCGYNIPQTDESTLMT

Turning to `Cn1cc([C@H]2C[C@H]3CSC(N)=N[C@@]3(c3cc(CNCC(F)(F)F)ccc3F)CO2)cn1` (relative stereo) [Example 16, rel-(4aR,6R,8aS)-8a-(2-Fluoro-5-{[(2,2,2-trifluoroethyl)amino]methyl}phenyl)-6-(1-methyl-1H-pyrazol-4-yl)-4,4a,5,6,8,8a-hexahydropyrano[3,4-d][1,3]thiazin-2-amine], the figures for the IC50 (on BACE1 enzyme; in assay [1]; at BACE2 enzyme) were 19 nM, 1.88 nM and 108 nM, respectively.
